Data published in patent US20070049593A1 (priority 2004, published 2007).
Where a name gives a salt, the structure may show the parent alone.

Target: T1, HCV polymerase (Hepatitis C virus genotype 1b, UniProt P26663)
T1 construct: a region encoding NS5B (J Virol 1991 March, 65(3), 1105-13, 544 amino acids after deletion of 47 amino acids on the C-terminal); 6xHis (C); made in house; host or cells: Escherichia coli
Test: biochemical
Parameters: species or system HCV BK strain
Procedure, shortened: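 His-tagged NS5B (BK strain, 47-aa C-terminal deletion, E. coli-expressed) at 0.5 μg/ml copied 5 μg/ml run-off RNA bearing the HCV 3′ UTR with 2 μM UTP plus [3H]UTP, 50 μM ATP/GTP, in pH 7.5 Tris with 5 mM MgCl2, 25 °C, 90 min. TCA-precipitated RNA was counted and IC50 calculated.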

T1 sequence (P26663 2420-2963): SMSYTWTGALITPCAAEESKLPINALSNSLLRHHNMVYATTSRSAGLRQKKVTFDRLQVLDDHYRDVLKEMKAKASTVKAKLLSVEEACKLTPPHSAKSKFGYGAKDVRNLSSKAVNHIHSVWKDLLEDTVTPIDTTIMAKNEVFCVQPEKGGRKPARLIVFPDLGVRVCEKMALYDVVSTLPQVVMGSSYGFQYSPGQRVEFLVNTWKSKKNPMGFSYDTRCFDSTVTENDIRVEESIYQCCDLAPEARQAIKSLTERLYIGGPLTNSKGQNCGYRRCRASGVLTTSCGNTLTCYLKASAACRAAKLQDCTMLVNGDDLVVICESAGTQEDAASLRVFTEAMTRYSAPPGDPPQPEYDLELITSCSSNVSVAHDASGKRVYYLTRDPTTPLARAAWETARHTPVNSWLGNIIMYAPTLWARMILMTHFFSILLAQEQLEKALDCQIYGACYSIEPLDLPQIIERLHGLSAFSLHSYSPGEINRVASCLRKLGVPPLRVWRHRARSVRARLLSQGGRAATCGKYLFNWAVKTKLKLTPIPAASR

| Compound | IC50 [nM] |
| --- | --- |
| COc1ccc2c(c1)N(C)CCn1c-2c(C2CCCCC2)c2ccc(C(=O)O)cc21 [Example 1-594, 13-cyclohexyl-3-methoxy-5-methyl-6,7-dihydro-5H-benzo[5,6][1,4]diazepino[7,1-a]indole-10-carboxylic acid] | < 100 |
| O=C(O)c1ccc2c(C3CCCCC3)c3n(c2c1)CCN(CCN1CCCCC1)c1cc(OCc2ccccn2)ccc1-3 [Example 1-595, 13-cyclohexyl-5-[2-(piperidin-1-yl)ethyl]-3-(pyridin-2-ylmethoxy)-6,7-dihydro-5H-benzo[5,6][1,4]diazepino[7,1-a]indole-10-carboxylic acid trihydrochloride] | < 100 |
| CCOc1ccc2c(c1)N(C)CCn1c-2c(C2CCCCC2)c2ccc(C(=O)NC(C)(C)C(=O)Nc3ccc(/C=C/C(=O)O)cc3)cc21 [Example 1-615, (E)-3-(4-{2-[(13-cyclohexyl-3-ethoxy-5-methyl-6,7-dihydro-5H-benzo[5,6][1,4]diazepino[7,1-a]indole-10-carbonyl)amino]-2-methylpropionylamino}phenyl)acrylic acid] | < 100 |
| CCOc1ccc2c(c1)N(C)CCn1c-2c(C2CCCCC2)c2ccc(C(=O)NC3(C(=O)Nc4cccc(/C=C/C(=O)O)c4)CCC3)cc21 [Example 1-616, (E)-3-[3-({1-[(13-cyclohexyl-3-ethoxy-5-methyl-6,7-dihydro-5H-benzo[5,6][1,4]diazepino[7,1-a]indole-10-carbonyl)amino]cyclobutanecarbonyl}amino)phenyl]acrylic acid] | < 100 |
| CCOc1ccc2c(c1)N(C)CCn1c-2c(C2CCCCC2)c2ccc(C(=O)NC3(C(=O)Nc4ccc(/C=C/C(=O)O)cc4OC)CCC3)cc21 [Example 1-617, (E)-3-[4-({1-[(13-cyclohexyl-3-ethoxy-5-methyl-6,7-dihydro-5H-benzo[5,6][1,4]diazepino[7,1-a]indole-10-carbonyl)amino]cyclobutanecarbonyl}amino)-3-methoxyphenyl]acrylic acid] | < 100 |
| CCOc1ccc2c(c1)N(C)CCn1c-2c(C2CCCCC2)c2ccc(C(=O)NC3(C(=O)Nc4ccc(Cl)c(/C=C/C(=O)O)c4)CCC3)cc21 [Example 1-618, (E)-3-[2-chloro-5-({1-[(13-cyclohexyl-3-ethoxy-5-methyl-6,7-dihydro-5H-benzo[5,6][1,4]diazepino[7,1-a]indole-10-carbonyl)amino]cyclobutanecarbonyl}amino)phenyl]acrylic acid] | < 100 |
| CCOc1ccc2c(c1)N(C)CCn1c-2c(C2CCCCC2)c2ccc(C(=O)NC3(C(=O)Nc4ccc(OC)c(/C=C/C(=O)O)c4)CCC3)cc21 [Example 1-619, (E)-3-[5-({1-[(13-cyclohexyl-3-ethoxy-5-methyl-6,7-dihydro-5H-benzo[5,6][1,4]diazepino[7,1-a]indole-10-carbonyl)amino]cyclobutanecarbonyl}amino)-2-methoxyphenyl]acrylic acid] | < 100 |
| CCOc1ccc2c(c1)N(C)CCn1c-2c(C2CCCCC2)c2ccc(C(=O)NC3(C(=O)Nc4ccc(C)c(/C=C/C(=O)O)c4)CCC3)cc21 [Example 1-620, (E)-3-[5-({1-[(13-cyclohexyl-3-ethoxy-5-methyl-6,7-dihydro-5H-benzo[5,6][1,4]diazepino[7,1-a]indole-10-carbonyl)amino]cyclobutanecarbonyl}amino)-2-methylphenyl]acrylic acid] | < 100 |
| CCOc1ccc2c(c1)N(C)CCn1c-2c(C2CCCCC2)c2ccc(C(=O)NC3(C(=O)Nc4ccc(/C=C/C(=O)O)c(C)c4)CCC3)cc21 [Example 1-621, (E)-3-[4-({1-[(13-cyclohexyl-3-ethoxy-5-methyl-6,7-dihydro-5H-benzo[5,6][1,4]diazepino[7,1-a]indole-10-carbonyl)amino]cyclobutanecarbonyl}amino)-2-methylphenyl]acrylic acid] | < 100 |
| CCOc1ccc2c(c1)N(C)CCn1c-2c(C2CCCCC2)c2ccc(C(=O)NC3(C(=O)Nc4ccc(/C=C/C(=O)O)c(OC)c4)CCC3)cc21 [Example 1-622, (E)-3-[4-({1-[(13-cyclohexyl-3-ethoxy-5-methyl-6,7-dihydro-5H-benzo[5,6][1,4]diazepino[7,1-a]indole-10-carbonyl)amino]cyclobutanecarbonyl}amino)-2-methoxyphenyl]acrylic acid] | < 100 |
| CCOc1ccc2c(c1)N(C)CCn1c-2c(C2CCCCC2)c2ccc(C(=O)NC3(C(=O)Nc4ccc(C=CC(=O)O)c(Cl)c4)CCC3)cc21 [Example 1-623, (E)-3-[2-chloro-4-({1-[(13-cyclohexyl-3-ethoxy-5-methyl-6,7-dihydro-5H-benzo[5,6][1,4]diazepino[7,1-a]indole-10-carbonyl)amino]cyclobutanecarbonyl}amino)phenyl]acrylic acid] | < 100 |
| O=C(O)c1ccc2c(C3CCCCC3)c3n(c2c1)CCOc1cc(OCc2ccccc2)ccc1-3 [Example 2-3, 3-benzyloxy-12-cyclohexyl-6,7-dihydro-5-oxa-7a-azadibenzo[a,e]azulene-9-carboxylic acid] | < 100 |
| COc1ccc2c(c1)OCCn1c-2c(C2CCCCC2)c2ccc(C(=O)O)cc21 [Example 2-4, 12-cyclohexyl-3-methoxy-6,7-dihydro-5-oxa-7a-azadibenzo[a,e]azulene-9-carboxylic acid] | < 100 |
| O=C(O)c1ccc2c(C3CCCCC3)c3n(c2c1)CCOc1cc(OCc2cc(N4CCCC4=O)ccc2N2CCOCC2)ccc1-3 [Example 2-5, 12-cyclohexyl-3-[2-(morpholin-4-yl)-5-(2-oxopyrrolidin-1-yl)benzyloxy]-6,7-dihydro-5-oxa-7a-azadibenzo[a,e]azulene-9-carboxylic acid monohydrochloride] | < 100 |
| COc1ccc2c(c1)-c1c(C3CCCCC3)c3ccc(C(=O)O)cc3n1CCO2 [Example 2-6, 12-cyclohexyl-2-methoxy-6,7-dihydro-5-oxa-7a-azadibenzo[a,e]azulene-9-carboxylic acid] | 100 to 1000 |
| O=C(O)c1ccc2c(C3CCCCC3)c3n(c2c1)CCOc1cc(OCc2ccc(N4CCCC4=O)cc2N2CCOCC2)ccc1-3 [Example 2-9, 12-cyclohexyl-3-[2-(morpholin-4-yl)-4-(2-oxopyrrolidin-1-yl)benzyloxy]-6,7-dihydro-5-oxa-7a-azadibenzo[a,e]azulene-9-carboxylic acid] | < 100 |
| CC(C)(C)OC(=O)N1CCC(Oc2ccc3c(c2)OCCn2c-3c(C3CCCCC3)c3ccc(C(=O)O)cc32)CC1 [Example 2-10, 3-(1-tert-butoxycarbonylpiperidin-4-yloxy)-12-cyclohexyl-6,7-dihydro-5-oxa-7a-azadibenzo[a,e]azulene-9-carboxylic acid] | < 100 |
| CC(C)(C)OC(=O)N1CCCC(Oc2ccc3c(c2)OCCn2c-3c(C3CCCCC3)c3ccc(C(=O)O)cc32)C1 (stereo not shown) [Example 2-11, 3-(1-tert-butoxycarbonylpiperidin-3-yloxy)-12-cyclohexyl-6,7-dihydro-5-oxa-7a-azadibenzo[a,e]azulene-9-carboxylic acid] | < 100 |
| CS(=O)(=O)c1ccc(N2CCOCC2)c(COc2ccc3c(c2)OCCn2c-3c(C3CCCCC3)c3ccc(C(=O)O)cc32)c1 [Example 2-12, 12-cyclohexyl-3-[5-methanesulfonyl-2-(morpholin-4-yl)benzyloxy]-6,7-dihydro-5-oxa-7a-azadibenzo[a,e]azulene-9-carboxylic acid monohydrochloride] | < 100 |
| CS(=O)(=O)N1CCN(c2ccc(N3CCCC3=O)cc2COc2ccc3c(c2)OCCn2c-3c(C3CCCCC3)c3ccc(C(=O)O)cc32)CC1 [Example 2-13, 12-cyclohexyl-3-[2-(4-methanesulfonylpiperazin-1-yl)-5-(2-oxopyrrolidin-1-yl)benzyloxy]-6,7-dihydro-5-oxa-7a-azadibenzo[a,e]azulene-9-carboxylic acid monohydrochloride] | < 100 |
| O=C(O)c1ccc2c(C3CCCCC3)c3n(c2c1)CCOc1cc(OCc2ccccc2N2CCOCC2)ccc1-3 [Example 2-14, 12-cyclohexyl-3-[2-(morpholin-4-yl)benzyloxy]-6,7-dihydro-5-oxa-7a-azadibenzo[a,e]azulene-9-carboxylic acid monohydrochloride] | < 100 |
| CC(=O)Nc1ccc(N2CCOCC2)c(COc2ccc3c(c2)OCCn2c-3c(C3CCCCC3)c3ccc(C(=O)O)cc32)c1 [Example 2-15, 3-[5-acetylamino-2-(morpholin-4-yl)benzyloxy]-12-cyclohexyl-6,7-dihydro-5-oxa-7a-azadibenzo[a,e]azulene-9-carboxylic acid monohydrochloride] | < 100 |
| CN(C)CC(=O)Nc1ccc(N2CCOCC2)c(COc2ccc3c(c2)OCCn2c-3c(C3CCCCC3)c3ccc(C(=O)O)cc32)c1 [Example 2-16, 12-cyclohexyl-3-[5-(2-dimethylaminoacetylamino)-2-(morpholin-4-yl)benzyloxy]-6,7-dihydro-5-oxa-7a-azadibenzo[a,e]azulene-9-carboxylic acid dihydrochloride] | < 100 |
| CS(=O)(=O)Nc1ccc(N2CCOCC2)c(COc2ccc3c(c2)OCCn2c-3c(C3CCCCC3)c3ccc(C(=O)O)cc32)c1 [Example 2-17, 12-cyclohexyl-3-[5-methanesulfonylamino-2-(morpholin-4-yl)benzyloxy]-6,7-dihydro-5-oxa-7a-azadibenzo[a,e]azulene-9-carboxylic acid monohydrochloride] | < 100 |
| CC(=O)N(C)c1ccc(N2CCOCC2)c(COc2ccc3c(c2)OCCn2c-3c(C3CCCCC3)c3ccc(C(=O)O)cc32)c1 [Example 2-18, 3-[5-(N-acetyl-N-methylamino)-2-(morpholin-4-yl)benzyloxy]-12-cyclohexyl-6,7-dihydro-5-oxa-7a-azadibenzo[a,e]azulene-9-carboxylic acid monohydrochloride] | < 100 |
